# Source: patent US9125903B2, “Composition useful for the treatment of lipid metabolism disorders” (SIGMA-TAU INDUSTRIE FARMACEUTICHE RIUNITE, S.P.A., priority 2011, dated 2015)
# Legend:
# Type in all cases: in vivo
# [1] = system: male CD1 mice on high-cholesterol diet; experiment: Plasma total cholesterol levels in male CD1 mice on high-cholesterol diet; set-up: % Reduction total cholesterol: concentration or dose not given beside the values; details: for % Reduction total cholesterol: VS Cont. (high-cholesterol diet control, group 1); for Total-cholesterol (mg/dL) Mean values ± S.E.: plasma, oral twice a day for 17 days and one time on day 18, blood 8 h from last treatment, post-absorptive, monacolin K 2, fish oil 200, hexacosanol 25, resveratrol 5, Coenzyme Q10 50, vitamin B6 0.3, vitamin B12 0.25, L-carnitine 20 mg/kg
# Method: (§1) Male CD 1 mice on a high-cholesterol diet (DP/104, Altromin-Rieper) for about 25 days were used. An acclimatization period of seven days was allowed before the start of the high-cholesterol diet.
# (§2) Mice were housed inside cages with stainless steel cover-feed and sterilized and dust-free bedding cobs. Animals were housed under a light-dark cycle, keeping temperature and humidity constant. Parameters of the animal rooms are assessed as follows: 22±2° C. temperature, 55±10% relative humidity, about 15-20 filtered air changes/hour and 12 hours circadian cycle of artificial light (7 a.m., 7 p.m.). The environmental conditions were monitored.
# (§3) Mice were divided into groups (10 mice per group) and treated orally (1 mL) twice daily with the compounds of the invention or their combinations at the doses reported in the following:
# (§4) monacolin K 2 mg/kg (dissolved in water);
# (§5) fish oil 200 mg/kg (dissolved in ethanol);
# (§6) Hexacosanol 25 mg/kg (dissolved in ethanol);
# (§7) resveratrol 5 mg/kg (dissolved in ethanol);
# (§8) Coenzyme Q10 50 mg/kg (dissolved in water);
# (§9) Vitamin B6 0.3 mg/kg (dissolved in water);
# (§10) Vitamin B12 0.25 mg/kg (dissolved in water);
# (§11) L-carnitine 20 mg/kg (dissolved in water).
# (§12) At the start of treatment, the body weight of the animals was checked and monitoring of the animals' consumption of water and feed was scheduled.
# (§13) On day 18, plasma cholesterol, triglyceride and HDL cholesterol were evaluated. […]
# [2] = system: male CD1 mice on high-cholesterol diet; experiment: Plasma triglycerides levels in male CD1 mice on high-cholesterol diet; set-up: % Reduction triglycerides: concentration or dose not given beside the values; details: for % Reduction triglycerides: VS Cont. (high-cholesterol diet control, group 1); for Triglycerides (mg/dL) Mean values ± S.E.: plasma, oral twice a day for 17 days and one time on day 18, blood 8 h from last treatment, post-absorptive, monacolin K 2, fish oil 200, hexacosanol 25, resveratrol 5, Coenzyme Q10 50, vitamin B6 0.3, vitamin B12 0.25, L-carnitine 20 mg/kg
# Method: as §1, §2, §3, §4, §5, §6, §7, §8, §9, §10, §11, §12, §13
# [3] = system: male CD1 mice on high-cholesterol diet; experiment: Plasma HDL-cholesterol levels in male CD1 mice on high-cholesterol diet; details: for % of increase HDL-cholesterol: VS Cont. (high-cholesterol diet control, group 1); for HDL-cholesterol: plasma, mean values ± S.E., oral twice a day for 17 days and one time on day 18, blood 8 h from last treatment, post-absorptive, monacolin K 2, fish oil 200, hexacosanol 25, resveratrol 5, Coenzyme Q10 50, vitamin B6 0.3, vitamin B12 0.25, L-carnitine 20 mg/kg
# Method: as §1, §2, §3, §4, §5, §6, §7, §8, §9, §10, §11, §12, §13
Molecule,% Reduction total cholesterol [1] [%],Total-cholesterol (mg/dL) Mean values ± S.E. [1] [mg/dL],% Reduction triglycerides [2] [%],Triglycerides (mg/dL) Mean values ± S.E. [2] [mg/dL],% of increase HDL-cholesterol [3],HDL-cholesterol [3] [mg/dL]
COC1=C(OC)C(=O)C(C/C=C(\C)CC/C=C(\C)CC/C=C(\C)CC/C=C(\C)CC/C=C(\C)CC/C=C(\C)CC/C=C(\C)CC/C=C(\C)CC/C=C(\C)CCC=C(C)C)=C(C)C1=O [Coenzyme Q10],−3,355.8 ± 25.2,−3,196.4 ± 22.1,+4%,23.9 ± 2.2
CCCCCCCCCCCCCCCCCCCCCCCCCCO [Hexacosanol],−16,307.2 ± 23.9,−15,172.1 ± 12.3,+15%,26.4 ± 2.0
C[N+](C)(C)C[C@H](O)CC(=O)[O-] [L-carnitine],−12,322.8 ± 21.1,−5,192.3 ± 16.4,+21%,27.8 ± 2.1
"CC[C@H](C)C(=O)O[C@H]1C[C@@H](C)C=C2C=C[C@H](C)[C@H](CC[C@@H]3C[C@@H](O)CC(=O)O3)[C@H]21 [Monacolin K, monacolin K]",−21,289.7 ± 21.0,−8,186.3 ± 20.8,+10%,25.3 ± 2.1
"Oc1ccc(/C=C/c2cc(O)cc(O)c2)cc1 [Resveratrol, trans-3,4′,5-trihydroxystilbene]",−4,352.1 ± 19.1,−22,157.9 ± 12.4,+3%,23.7 ± 1.9
Cc1ncc(CO)c(CO)c1O.Cl [Vitamin B6],−5,348.5 ± 18.5,−4,194.3 ± 16.7,+5%,24.1 ± 2.5
cobalamin [Vitamin B12],−4,352.1 ± 20.2,−4,194.5 ± 17.4,+5%,24.3 ± 23
